Test results: US10344060B2 (priority 2013, dated 2019)
Where “and” joins values, the source holds several entries; their conditions need not be identical. Equal values may be shown once. Read-outs that look alike come from different tables or passages of the source.

Experiments:
[1] = tested on: TTX-sensitive Nav channels in mouse DRG neuron; conditions: for block of TTX-sensitive Nav current: C57 Black 6 mouse DRG neuron
hNav1.6 = hNav1.6 (Homo sapiens, UniProt Q9UQD0); test: cell-based; assay type: cell-based; conditions: Table 15; for Nav1.6/Nav1.7: ratio of PX tonic IC50 values; for IC50: read-out: PX hNav1.6 Tonic IC50
hNav1.4 = hNav1.4 (Homo sapiens, UniProt P35499); test: cell-based; assay type: cell-based; conditions: for IC50: PatchXpress, tonic block, read-out: PX hNav1.4 Tonic IC50; for Nav1.4/Nav1.7: ratio of PX tonic IC50 values
Sequence of hNav1.4 (P35499 whole entry): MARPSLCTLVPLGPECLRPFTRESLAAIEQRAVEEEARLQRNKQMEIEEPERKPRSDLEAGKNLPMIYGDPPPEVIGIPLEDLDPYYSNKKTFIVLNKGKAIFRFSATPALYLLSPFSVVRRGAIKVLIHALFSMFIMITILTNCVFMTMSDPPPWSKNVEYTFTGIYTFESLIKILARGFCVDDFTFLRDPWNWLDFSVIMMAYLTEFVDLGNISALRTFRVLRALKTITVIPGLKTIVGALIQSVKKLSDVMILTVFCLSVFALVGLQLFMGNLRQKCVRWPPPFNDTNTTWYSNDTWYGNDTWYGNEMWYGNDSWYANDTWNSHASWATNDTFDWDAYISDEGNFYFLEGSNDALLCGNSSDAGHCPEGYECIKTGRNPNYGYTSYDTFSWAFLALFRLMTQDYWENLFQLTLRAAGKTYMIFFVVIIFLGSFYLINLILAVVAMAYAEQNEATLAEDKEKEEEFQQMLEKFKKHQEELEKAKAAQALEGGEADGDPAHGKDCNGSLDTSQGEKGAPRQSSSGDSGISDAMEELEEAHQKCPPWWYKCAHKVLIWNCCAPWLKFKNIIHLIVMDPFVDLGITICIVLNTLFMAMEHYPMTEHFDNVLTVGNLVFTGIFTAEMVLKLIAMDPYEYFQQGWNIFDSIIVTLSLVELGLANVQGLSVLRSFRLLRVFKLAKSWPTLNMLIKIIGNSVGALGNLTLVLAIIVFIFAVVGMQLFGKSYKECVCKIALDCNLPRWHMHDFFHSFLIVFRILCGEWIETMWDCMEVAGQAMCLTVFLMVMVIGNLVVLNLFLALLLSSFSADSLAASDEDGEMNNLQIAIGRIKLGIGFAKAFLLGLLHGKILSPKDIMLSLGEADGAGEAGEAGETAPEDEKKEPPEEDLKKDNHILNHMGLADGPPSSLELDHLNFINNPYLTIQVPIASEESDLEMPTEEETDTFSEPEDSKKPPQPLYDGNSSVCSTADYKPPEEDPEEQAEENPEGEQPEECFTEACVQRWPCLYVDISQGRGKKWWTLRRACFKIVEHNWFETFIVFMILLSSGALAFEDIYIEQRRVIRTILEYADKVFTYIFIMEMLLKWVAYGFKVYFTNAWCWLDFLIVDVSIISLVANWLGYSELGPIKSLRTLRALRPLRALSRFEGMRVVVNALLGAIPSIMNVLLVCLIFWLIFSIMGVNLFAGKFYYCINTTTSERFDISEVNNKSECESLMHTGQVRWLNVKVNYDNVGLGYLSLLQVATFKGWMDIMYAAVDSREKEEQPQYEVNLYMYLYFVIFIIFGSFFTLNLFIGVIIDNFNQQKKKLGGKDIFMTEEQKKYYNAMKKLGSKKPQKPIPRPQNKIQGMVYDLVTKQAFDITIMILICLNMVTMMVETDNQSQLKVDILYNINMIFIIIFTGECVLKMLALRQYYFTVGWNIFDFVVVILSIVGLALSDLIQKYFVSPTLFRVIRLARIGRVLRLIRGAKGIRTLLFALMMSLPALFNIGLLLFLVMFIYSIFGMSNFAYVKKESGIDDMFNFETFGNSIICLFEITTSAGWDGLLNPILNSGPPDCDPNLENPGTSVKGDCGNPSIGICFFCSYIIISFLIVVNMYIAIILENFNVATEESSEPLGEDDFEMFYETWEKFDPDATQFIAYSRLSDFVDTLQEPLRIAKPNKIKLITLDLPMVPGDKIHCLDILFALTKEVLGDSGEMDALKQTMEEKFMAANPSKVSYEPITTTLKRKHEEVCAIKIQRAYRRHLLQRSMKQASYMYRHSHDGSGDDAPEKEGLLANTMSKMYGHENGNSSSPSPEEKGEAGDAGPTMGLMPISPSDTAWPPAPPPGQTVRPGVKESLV

hNav1.7 = hNav1.7 (Homo sapiens, UniProt Q15858); test: cell-based; assay type: cell-based; conditions: read-out: PX hNav1.7 Tonic IC50
mNav1.7 = mNav1.7 (Mus musculus, UniProt Q62205); test: cell-based; conditions: for IC50: PatchXpress, tonic block, mouse Nav1.7, read-out: PX mNav1.7 Tonic IC50; for mNav1.7/hNav1.7: ratio of PX tonic IC50, mouse Nav1.7 over human Nav1.7
Sequence of mNav1.7 (Q62205 whole entry): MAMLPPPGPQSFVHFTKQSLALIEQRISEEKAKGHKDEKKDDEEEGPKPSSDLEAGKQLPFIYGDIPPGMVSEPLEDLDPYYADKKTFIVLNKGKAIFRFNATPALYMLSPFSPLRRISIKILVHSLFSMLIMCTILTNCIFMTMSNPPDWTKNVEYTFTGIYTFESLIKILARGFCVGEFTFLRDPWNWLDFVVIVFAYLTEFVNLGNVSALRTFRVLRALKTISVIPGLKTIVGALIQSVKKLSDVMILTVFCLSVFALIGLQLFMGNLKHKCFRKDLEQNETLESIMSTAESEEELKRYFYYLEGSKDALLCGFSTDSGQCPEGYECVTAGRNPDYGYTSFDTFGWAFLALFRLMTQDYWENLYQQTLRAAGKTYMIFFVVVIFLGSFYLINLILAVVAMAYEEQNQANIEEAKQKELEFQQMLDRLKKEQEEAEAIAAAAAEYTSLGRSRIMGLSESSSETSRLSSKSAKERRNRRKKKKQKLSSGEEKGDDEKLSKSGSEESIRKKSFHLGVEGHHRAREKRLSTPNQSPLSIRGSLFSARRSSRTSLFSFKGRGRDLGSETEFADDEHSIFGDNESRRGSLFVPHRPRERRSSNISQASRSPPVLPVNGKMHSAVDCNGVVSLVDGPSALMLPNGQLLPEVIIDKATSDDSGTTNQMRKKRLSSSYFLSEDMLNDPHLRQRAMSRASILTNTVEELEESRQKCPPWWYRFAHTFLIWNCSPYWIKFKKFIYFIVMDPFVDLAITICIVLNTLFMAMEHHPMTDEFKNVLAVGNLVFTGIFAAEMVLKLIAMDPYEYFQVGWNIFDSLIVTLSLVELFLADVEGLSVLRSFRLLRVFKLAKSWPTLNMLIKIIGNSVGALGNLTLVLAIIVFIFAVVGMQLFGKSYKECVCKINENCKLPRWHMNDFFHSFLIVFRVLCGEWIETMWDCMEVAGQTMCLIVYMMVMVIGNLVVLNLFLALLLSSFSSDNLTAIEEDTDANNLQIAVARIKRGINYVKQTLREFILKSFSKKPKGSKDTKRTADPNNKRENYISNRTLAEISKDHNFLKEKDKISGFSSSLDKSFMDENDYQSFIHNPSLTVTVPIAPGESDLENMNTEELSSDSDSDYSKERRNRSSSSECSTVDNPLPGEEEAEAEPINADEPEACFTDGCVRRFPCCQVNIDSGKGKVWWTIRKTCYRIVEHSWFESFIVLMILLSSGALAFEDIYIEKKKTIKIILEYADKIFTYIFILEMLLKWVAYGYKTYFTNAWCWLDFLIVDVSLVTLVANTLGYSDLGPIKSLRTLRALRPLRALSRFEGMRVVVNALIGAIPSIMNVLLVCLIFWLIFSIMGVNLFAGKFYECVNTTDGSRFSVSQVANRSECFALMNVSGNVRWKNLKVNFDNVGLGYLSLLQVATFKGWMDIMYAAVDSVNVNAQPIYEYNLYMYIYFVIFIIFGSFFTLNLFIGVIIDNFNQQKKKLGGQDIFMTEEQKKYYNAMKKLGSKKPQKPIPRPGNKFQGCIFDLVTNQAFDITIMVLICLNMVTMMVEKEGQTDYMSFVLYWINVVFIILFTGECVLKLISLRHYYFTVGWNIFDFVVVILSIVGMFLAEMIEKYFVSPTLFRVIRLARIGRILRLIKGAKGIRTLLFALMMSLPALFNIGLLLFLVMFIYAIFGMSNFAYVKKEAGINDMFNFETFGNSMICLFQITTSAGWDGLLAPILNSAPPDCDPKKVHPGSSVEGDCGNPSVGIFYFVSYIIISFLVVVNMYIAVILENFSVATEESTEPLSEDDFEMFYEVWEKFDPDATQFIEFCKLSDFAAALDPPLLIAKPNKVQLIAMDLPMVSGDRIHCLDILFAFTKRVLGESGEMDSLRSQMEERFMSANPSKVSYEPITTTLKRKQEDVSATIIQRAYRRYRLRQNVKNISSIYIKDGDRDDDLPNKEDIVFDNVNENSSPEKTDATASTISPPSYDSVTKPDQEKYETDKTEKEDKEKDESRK

rNav1.7 = rNav1.7 (Rattus norvegicus, UniProt O08562); test: cell-based; conditions: for IC50: PatchXpress, tonic block, rat Nav1.7, read-out: PX rNav1.7 Tonic IC50; for rNav1.7/hNav1.7: ratio of PX tonic IC50, rat Nav1.7 over human Nav1.7
hNav1.5 = hNav1.5 (Homo sapiens, UniProt Q14524); test: cell-based; conditions: for Nav1.5/Nav1.7: ratio of PX tonic IC50 values
mouse Nav1.4 = mouse Nav1.4 (Mus musculus, UniProt Q9ER60); test: cell-based; conditions: PatchXpress, tonic block, mouse Nav1.4; read-out: PX mNav1.4 Tonic IC50
[2] = Table 12, PatchXpress, tonic block
[3] = PatchXpress, tonic block, human Nav1.7

| Compound | IC50 [1] | Nav1.6/Nav1.7 (hNav1.6) | IC50 (hNav1.6) | IC50 (hNav1.4; Table 12) | IC50 (mNav1.7) | mNav1.7/hNav1.7 (mNav1.7) | IC50 (rNav1.7) | rNav1.7/hNav1.7 (rNav1.7) | IC50 (hNav1.7; [3]) | further results |
| --- | --- | --- | --- | --- | --- | --- | --- | --- | --- | --- |
| C#CC[C@H](N)C(=O)N[C@@H](Cc1ccc(O)cc1)C(=O)N[C@H]1CSSC[C@@H]2NC(=O)[C@@H]3CSSC[C@@H](C(=O)N[C@@H](CCCNC(=N)N)C(=O)N[C@@H](CCCCN)C(=O)N[C@@H](CCC(=O)O)C(=O)N[C@H](C(N)=O)[C@@H](C)CC)NC(=O)[C@H](Cc4c[nH]c5ccccc45)NC(=O)[C@H](CC(C)C)NC(=O)[C@H](CCCCN)NC(=O)[C@H](CSSC[C@H](NC(=O)[C@H]([C@@H](C)O)NC(=O)[C@H](Cc4c[nH]c5ccccc45)NC(=O)[C@H](CCCC)NC(=O)[C@H](Cc4c[nH]c5ccccc45)NC(=O)[C@H](CCCCN)NC(=O)[C@H](CCC(N)=O)NC1=O)C(=O)N[C@@H](CC(=O)O)C(=O)N[C@@H](CO)C(=O)N[C@@H](CCCCN)C(=O)N[C@@H](CCCNC(=N)N)C(=O)N[C@@H](CCC(=O)O)C(=O)N3)NC(=O)[C@H](CCCNC(=N)N)NC(=O)[C@H](CC(C)C)NC(=O)CNC(=O)[C@H](CCC(=O)O)NC2=O [compound 717] | 99.8 nM | 2558 | 2490 nM | 325 nM | – | – | – | – | – | block of TTX-sensitive Nav current ([1]; 1000 nM): approximately 90%; Nav1.4/Nav1.7 (hNav1.4; Table 12): 333; IC50 (hNav1.7; [2]): 0.975 nM |
| C#CC[C@H](N)C(=O)N[C@@H](Cc1ccc(O)cc1)C(=O)N[C@H]1CSSC[C@@H]2NC(=O)[C@@H]3CSSC[C@@H](C(=O)N[C@@H](CCCNC(=N)N)C(=O)N[C@@H](CCCCN)C(=O)N[C@@H](CCC(=O)O)C(=O)N[C@@H](Cc4c[nH]c5ccccc45)C(N)=O)NC(=O)[C@H](Cc4c[nH]c5ccccc45)NC(=O)[C@H](CC(C)C)NC(=O)[C@H](CCCCN)NC(=O)[C@H](CSSC[C@H](NC(=O)[C@H]([C@@H](C)O)NC(=O)[C@H](Cc4c[nH]c5ccccc45)NC(=O)[C@H](CCCC)NC(=O)[C@H](Cc4c[nH]c5ccccc45)NC(=O)[C@H](CCCCN)NC(=O)[C@H](CCC(N)=O)NC1=O)C(=O)N[C@@H](CC(=O)O)C(=O)N[C@@H](CO)C(=O)N[C@@H](CCCCN)C(=O)N[C@@H](CCCNC(=N)N)C(=O)N[C@@H](C)C(=O)N3)NC(=O)[C@H](CCCNC(=N)N)NC(=O)[C@H](CC(C)C)NC(=O)CNC(=O)[C@H](CCC(=O)O)NC2=O [Pra-[Nle6; Glu28; Trp29]JzTx-V(1-29)] | – | – | – | – | 3.11 nM | 8.82 | 0.097 nM | 0.27 | 0.352 nM | – |
| C#CC[C@H](N)C(=O)N[C@@H](Cc1ccc(O)cc1)C(=O)N[C@H]1CSSC[C@@H]2NC(=O)[C@@H]3CSSC[C@@H](C(=O)N[C@@H](CCCNC(=N)N)C(=O)N[C@@H](CCCCN)C(=O)N[C@@H](CCC(=O)O)C(=O)N[C@H](C(N)=O)[C@@H](C)CC)NC(=O)[C@H](Cc4c[nH]c5ccccc45)NC(=O)[C@H](CC(C)C)NC(=O)[C@H](CCCCN)NC(=O)[C@H](CSSC[C@H](NC(=O)[C@H]([C@@H](C)O)NC(=O)[C@H](Cc4c[nH]c5ccccc45)NC(=O)[C@H](CCCC)NC(=O)[C@H](Cc4c[nH]c5ccccc45)NC(=O)[C@H](CCCCN)NC(=O)[C@H](CCC(N)=O)NC1=O)C(=O)N[C@@H](CC(=O)O)C(=O)N[C@@H](CO)C(=O)N[C@@H](CCC(=O)O)C(=O)N[C@@H](CCCNC(=N)N)C(=O)N[C@@H](C)C(=O)N3)NC(=O)[C@H](CCCNC(=N)N)NC(=O)[C@H](CC(C)C)NC(=O)CNC(=O)[C@H](CCC(=O)O)NC2=O [compound 715] | 144 nM | 508 | 877 nM | 811 nM | – | – | – | – | – | block of TTX-sensitive Nav current ([1]; 1000 nM): approximately 90%; Nav1.4/Nav1.7 (hNav1.4; Table 12): 470; IC50 (hNav1.5; Table 12, PatchXpress, tonic block, read-out: PX hNav1.5 Tonic IC50): > 10000 nM; Nav1.5/Nav1.7 (hNav1.5; Table 12): >5794; IC50 (hNav1.7; [2]): 1.73 nM |
| CCCC[C@@H]1NC(=O)[C@H](Cc2c[nH]c3ccccc23)NC(=O)[C@H](CCCCN)NC(=O)[C@H](CCC(N)=O)NC(=O)[C@@H](NC(=O)[C@H](Cc2ccc(O)cc2)NC(=O)[C@@H](N)CCC)CSSC[C@@H]2NC(=O)[C@@H]3CSSC[C@@H](C(=O)N[C@@H](CCCNC(=N)N)C(=O)N[C@@H](CCCCN)C(=O)N[C@H](C(=O)N[C@H](C(N)=O)[C@@H](C)CC)[C@@H](C)CC)NC(=O)[C@H](Cc4c[nH]c5ccccc45)NC(=O)[C@H](CC(C)C)NC(=O)[C@H](CCCCN)NC(=O)[C@H](CSSC[C@H](NC(=O)[C@H]([C@@H](C)O)NC(=O)[C@H](Cc4c[nH]c5ccccc45)NC1=O)C(=O)N[C@@H](CC(=O)O)C(=O)N[C@@H](CO)C(=O)N[C@@H](CCCCN)C(=O)N[C@@H](CCCNC(=N)N)C(=O)N[C@@H](C)C(=O)N3)NC(=O)[C@H](CCCNC(=N)N)NC(=O)[C@H](CC(C)C)NC(=O)CNC(=O)[C@H](CCC(=O)O)NC2=O [Nva-[Nle6]JzTx-V(1-29)] | – | – | – | – | – | – | – | – | 0.82 nM | IC50 (mouse Nav1.4): 4.54 nM |
| C#CC[C@H](N)C(=O)NCCCC[C@@H]1NC(=O)[C@H](CCCNC(=N)N)NC(=O)[C@H](CCCCN)NC(=O)[C@H](CO)NC(=O)[C@H](CC(=O)O)NC(=O)[C@@H]2CSSC[C@@H]3NC(=O)[C@H](CCCNC(=N)N)NC(=O)[C@H](CC(C)C)NC(=O)CNC(=O)[C@H](CCC(=O)O)NC(=O)[C@H](CSSC[C@H](NC(=O)[C@H](Cc4ccc(O)cc4)NC(=O)[C@@H](N)CC#N)C(=O)N[C@@H](CCC(N)=O)C(=O)N[C@@H](CCCCN)C(=O)N[C@@H](Cc4c[nH]c5ccccc45)C(=O)N[C@@H](CCCC)C(=O)N[C@@H](Cc4c[nH]c5ccccc45)C(=O)N[C@@H]([C@@H](C)O)C(=O)N2)NC(=O)[C@H](CSSC[C@@H](C(=O)N[C@@H](CCCNC(=N)N)C(=O)N[C@@H](CCCCN)C(=O)N[C@@H](CCC(=O)O)C(=O)N[C@H](C(N)=O)[C@@H](C)CC)NC(=O)[C@H](Cc2c[nH]c4ccccc24)NC(=O)[C@H](CC(C)C)NC(=O)[C@H](CCCCN)NC3=O)NC1=O [compound 392] | 46.6 nM | 157 | 250 nM | 110 nM | – | – | – | – | – | fold less potent than JzTx-V in inhibition of TTX-sensitive current [1]: about 3 fold; Nav1.5/Nav1.7 (hNav1.5; Table 12): 659 and 615 and 841; IC50 (hNav1.7; Table 15): 1.59 nM |
| CCCC[C@@H]1NC(=O)[C@H](Cc2c[nH]c3ccccc23)NC(=O)[C@H](CCCCN)NC(=O)[C@H](CCC(N)=O)NC(=O)[C@@H](NC(=O)[C@H](Cc2ccc(O)cc2)NC(=O)[C@@H](N)CC#N)CSSC[C@@H]2NC(=O)[C@@H]3CSSC[C@@H](C(=O)N[C@@H](CCCNC(=N)N)C(=O)N[C@@H](CCCCN)C(=O)N[C@@H](CCC(=O)O)C(=O)N[C@H](C(N)=O)[C@@H](C)CC)NC(=O)[C@H](Cc4c[nH]c5ccccc45)NC(=O)[C@H](CC(C)C)NC(=O)[C@H](CCCCN)NC(=O)[C@H](CSSC[C@H](NC(=O)[C@H]([C@@H](C)O)NC(=O)[C@H](Cc4c[nH]c5ccccc45)NC1=O)C(=O)N[C@@H](CC(=O)O)C(=O)N[C@@H](CO)C(=O)N[C@@H](CCCCN)C(=O)N[C@@H](CCCNC(=N)N)C(=O)N[C@@H](C)C(=O)N3)NC(=O)[C@H](CCCNC(=N)N)NC(=O)[C@H](CC(C)C)NC(=O)CNC(=O)[C@H](Cc1cn(CCCOCCOCCOCCOCCOCCOCCOCCOCCOCCOCCN)nn1)NC2=O [compound 443] | 35.2 nM | – | – | – | – | – | – | – | – | block of TTX-sensitive Nav current ([1]; 300 nM): over 75%; Nav1.4/Nav1.7 (hNav1.4; Table 13): 31; Nav1.5/Nav1.7 (hNav1.5; Table 13): 236 |
| C#CC[C@@H]1NC(=O)[C@H](CC(=O)O)NC(=O)[C@@H]2CSSC[C@@H]3NC(=O)[C@H](CCCNC(=N)N)NC(=O)[C@H](CC(C)C)NC(=O)CNC(=O)[C@H](CCC(=O)O)NC(=O)[C@H](CSSC[C@H](NC(=O)[C@@H](N)Cc4ccc(O)cc4)C(=O)N[C@@H](CCC(N)=O)C(=O)N[C@@H](CCCCN)C(=O)N[C@@H](Cc4c[nH]c5ccccc45)C(=O)N[C@@H](CCCC)C(=O)N[C@@H](Cc4c[nH]c5ccccc45)C(=O)N[C@@H]([C@@H](C)O)C(=O)N2)NC(=O)[C@H](CSSC[C@@H](C(=O)N[C@@H](CCCNC(=N)N)C(=O)N[C@@H](CCCCN)C(=O)N[C@@H](CCC(=O)O)C(=O)N[C@H](C(N)=O)[C@@H](C)CC)NC(=O)[C@H](Cc2c[nH]c4ccccc24)NC(=O)[C@H](CC(C)C)NC(=O)[C@H](CCCCN)NC3=O)NC(=O)[C@H](C)NC(=O)[C@H](CCCNC(=N)N)NC(=O)[C@H](CCCCN)NC1=O [[Nle6; Pra11; Glu28]JzTx-V(1-29)] | – | – | – | – | 3.69 nM | 7.81 | 3.83 nM | 8.10 | 0.473 nM | – |
| CC[C@H](C)[C@H](NC(=O)[C@H](CCCCN)NC(=O)[C@H](CCCNC(=N)N)NC(=O)[C@@H]1CSSC[C@@H]2NC(=O)[C@H](C)NC(=O)[C@H](CCCNC(=N)N)NC(=O)[C@H](CCCCN)NC(=O)[C@H](CO)NC(=O)[C@H](CC(=O)O)NC(=O)[C@@H]3CSSC[C@H](NC(=O)[C@H](CCC(=O)O)NC(=O)[C@H](CC(C)C)NC(=O)CNC(=O)[C@H](CCC(=O)O)NC(=O)[C@H](CSSC[C@H](NC(=O)[C@@H](N)Cc4ccc(O)cc4)C(=O)N[C@@H](CCC(N)=O)C(=O)N[C@@H](CCCCN)C(=O)N[C@@H](Cc4c[nH]c5ccccc45)C(=O)N[C@@H](CCSC)C(=O)N[C@@H](Cc4c[nH]c5ccccc45)C(=O)N[C@@H]([C@@H](C)O)C(=O)N3)NC2=O)C(=O)N[C@@H](CCCCN)C(=O)N[C@@H](CC(C)C)C(=O)N[C@@H](Cc2c[nH]c3ccccc23)C(=O)N1)C(=O)N[C@@H](Cc1c[nH]c2ccccc12)C(N)=O [[Glu20, Trp29]JzTx-V] | – | – | – | – | 5.08 nM | 3.20 | 1.3 nM | 0.82 | – | – |
